Data set [1] concerns ST2 cells. The experiment in a line: Initial toxicity studies in ST2 cells. The format is cell-based, murine. To be noted: ST2 cells (stromal cell line).
A further data set concerns primary human MSCs. Briefly: Initial toxicity studies in primary human MSCs. The format is cell-based.
In data set [2] the test system is ST2 cells. The experiment in a line: In vitro efferocytosis assay, ST2 cells with end stage neutrophils, flow cytometry. (Flow cytometry measures light scatter and fluorescence of single cells or particles in a stream.)
Method: ST2 cells, a bone marrow-derived mesenchymal stromal cell line, were plated at 2×10^4 per cm^2 in αMEM without ascorbic acid (Gibco)+10% FBS+1% pen-strep and incubated in 21% oxygen at 37° C. until 80% confluency. […] End-stage neutrophils were washed with PBS and fluorescently labeled with 20 nM efluro670 (ThermoFischer) according to manufacturer's instructions. Targets (neutrophils or apoptotic lymphocytes) were given in excess (1 MSC: 10 Target) to plated MSCs and incubated for up to 24 h. Cells were then washed 3× with PBS, imaged, and collected for flow cytometry analysis.
In the next data set the test system is macrophages. The following applies: targeting via clodronate; cited from earlier work.
Data set [3] relates to primary human MSCs (hMSCs). Briefly: Efferocytosis assay with pharmacological inhibition of mitochondrial fission, hMSCs. The following applies: pre-treated with 25 μM Mdivi for 1 h, end stage PMN for 24 h. The format is cell-based. The procedure:
(§1) FIGS. 6A, 6B, and 6C show quantification via flow cytometry of viability, end stage neutrophil (PMNs) engulfment, and efficiency (mean fluorescent intensity, MFI) of hMSCs pre-treated with 25 μM Mdivi for 1 h and then given end stage PMN for 24 h. […] N=3, Mean±SD shown on graphs ** p<0.01, *** p<0.001, (1-test or ANOVA).
Primary human MSCs (hMSCs) cells (Lonza) were plated at 2×10^4 per cm^2 in αMEM+10% FBS+1% pen-strep and incubated in 5% O2/5% CO2/37° C. until 80% confluent. Neutrophils were isolated from human peripheral blood via Mono-Poly resolving medium (MP Biomedicals, Inc) according to manufacturer's instructions and incubated in RPMI+10% FBS+10 mM HEPES overnight (18-20 h) at 37° C./5% CO2 as previously described (Casanova-Acebes M, et al. Cell 2013; 153:1025-35). hMSCs were treated with 25 μM Mdivi for 1 h prior to giving 20 nM efluro670 (ThermoFischer) stained end-stage neutrophils in excess (1:10) for 24 h. Cells were then washed 3× with PBS, imaged, and collected for flow cytometry analysis.
All samples were run on a LSRII flow cytometer: 3 lasers, 355 nm, 488 nm, and 633 nm (BD Biosciences). Analysis was performed using FlowJo version 10.8 (Tree Star). Sorting was done on a FACSAria II with 405-, 488-, 532-, and 633 nm lasers (BD Biosciences). All flow cytometry equipment is housed and quality controlled within the URMC Flow Cytometry core.

The subject of data set [4] is primary human MSCs (hMSCs). Briefly: Alkaline phosphatase measurement (osteoblastic differentiation) with inhibition of mitochondrial fission, hMSCs. The class given is cell-based. The following applies: for osteoblastic differentiation potential (alkaline phosphatase) of hMSCs: co-treatment with 25 μM Mdivi and PMN. Here is the method:
as §1
Cells were washed with PBS 3× and then fixed with formalin for 30 min at room temperature (RT). Following fixation, the cells were washed with water 3× and left to sit for 15 min at RT while preparing alkaline phosphatase (AP) staining. To prepare the AP stain, 5 mg Naphthol AS MX-PO4 was dissolved in 200 μL of N,N-dimethylformamide (DMF), 25 mL 0.2 M Tris pH 8.3, and 25 mL water. Red Violet LB salt (30 mg) was added to solution, vortexed, and filter through 45 μm filter. After incubation with AP stain for 45 min RT, cells were washed with water 3× and then stained with 2.5% silver nitrate for 30 min RT in a ventilated area, then washed with water and air dried. All plates were imaged via light microscopy and quantified for osteoblastic formation using ImageJ software.
Cells that performed efferocytosis in the presence or absence of Mdivi, were washed and stained for AP as described above. Wells were photographed, and images were analyzed using ImageJ for staining intensity.

The text below walks through data of patent publication US20260069610A1, “INHIBITION OF EFFEROCYTOSIS AS A TREATMENT TO PREVENT BONE LOSS AND INCREASE BONE DENSITY AND STRENGTH” (University of Rochester, priority 2022, published 2026).

Molecules are shown by their SMILES. “Also recorded” adds a separate entry of the source.

Take `CN1CCN(Cc2ccc(Nc3ncc(Cl)c(Nc4ccccc4S(=O)(=O)N(C)C)n3)cc2)CC1` [TP0903]: the toxicity entry with ST2 cells [1] and in the data set on primary human MSCs was “low toxicity” throughout. In addition, the “efferocytosis by ST2 cells” value in the data set with ST2 cells [2] (3 and 24 hrs, pre treated with 100 nM TP0903 for 1 hr, excess (5 PMN: 1 MSC) end stage hPMNs) was “blocks efferocytosis for a short duration”. Further, the “neutrophil uptake by MSCs” value in the data set on ST2 cells [2] (3 hours after neutrophil addition, flow cytometry) is “significantly reduced”.

On to `O=P(O)(O)C(Cl)(Cl)P(=O)(O)O` [clodronate], for which, in the data set on macrophages, the bone loss entry is listed as “did not result in bone loss”.

As to `COc1cc(-n2c(S)nc3ccccc3c2=O)c(Cl)cc1Cl` [Mdivi], in data set [3], the “efficiency (MFI) of efferocytosis by hMSCs” value is listed as “decreased”, the “overall rate of efferocytosis (end stage PMN engulfment) by hMSCs” value was “decreased; also recorded: decreases efferocytic activity in MSCs” and the “viability of hMSCs” value is given as “without impacting their viability”. Further, the “overall rate of efferocytosis (end stage PMN engulfment) by hMSCs” value in data set [3] (listed as MDivi) is “decreases human MSC (hMSC) efferocytosis”. In addition, the “osteoblastic differentiation (alkaline phosphatase) of hMSCs” value in data set [4] (Mdivi treatment in the absence of PMN) is “trending increase in osteoblastic differentiation; also recorded: increases osteoblastic differentiation independent of efferocytic activity”. The “osteoblastic differentiation potential (alkaline phosphatase) of hMSCs” value in data set [4] is reported as “rescued the osteoblastic differentiation potential; also recorded: rescues the defect in osteoblastic differentiation”. For the same compound, the “osteoblastic differentiation potential (alkaline phosphatase) of hMSCs” value in data set [4] (listed as MDivi) is recorded as “restores MSC osteoblastic differentiation”.
